According to patent publication US11485714B2, “Hydroxyethylamine-based piperazine compounds, and methods of producing and using the same for treating disease” (National Institute of Immunology, priority 2020, dated 2022):
Like-named read-outs stand apart in the source and are kept apart here.

What was measured:
Assay type in all cases: cell-based
[1] = test system: Field isolates from Kenya (P. falciparum infected blood); experiment: Screening against freshly collected field isolates; conditions: Plasmodium falciparum, read-out: Field isolates from Kenya IC50, nM (±SD)
[2] = test system: P. falciparum CQ-sensitive (Pf3D7); experiment: SYBR Green I assay, asynchronous cultures, CQ-sensitive clone; conditions: Plasmodium falciparum, read-out: Pf3D7 IC50, nM (±SD)
Protocol: Initially, antimalarial activity of Compound I was assessed on asynchronous cultures of P. falciparum sensitive (Pf3D7) clone using the SYBR Green assay. […] DMSO was used as a vehicle control, CQ (Chloroquine), DOX (Doxycycline) and DHA (Dihydroartemisinin).

[3] = test system: P. falciparum CQ-resistant (PfDd2); experiment: SYBR Green I assay, asynchronous cultures, CQ-resistant clone; conditions: Plasmodium falciparum, read-out: PfDd2 IC50, nM (±SD)
[4] = asynchronous cultures, 37° C., 72 hours, SYBR Green I

IC50 ([1]; Table 1) [nM] | IC50 [2, 4] [nM] | IC50 [3, 4] [nM] | Compound | IC50 [1] [nM] | IC50 ([2]; 72 h) [nM] | IC50 ([3]; 72 h) [nM]
– | – | – | CCN(CC)CCCC(C)Nc1ccnc2cc(Cl)ccc12 (stereo not drawn) [Chloroquine, reference compound] | 75.2 | 32.3 | 137
7.37 | 27 | 46 | C[C@H]1[C@@H](O)O[C@@H]2O[C@@]3(C)CC[C@H]4[C@H](C)CC[C@@H]1[C@@]24OO3 [Dihydroartemisinin, reference compound] | – | – | –
